ChEMBL document CHEMBL4004838, “Design and synthesis of novel phenyl -1, 4-beta-carboline-hybrid molecules as potential anticancer agents” (Eur J Med Chem, 2017)

What was measured:
Type in all cases: functional
[1] = system: CCRF-CEM; assay: Growth inhibition of human CCRF-CEM cells incubated for 48 hrs by sulforhodamine B assay
[2] = system: EKVX; assay: Growth inhibition of human EKVX cells incubated for 48 hrs by sulforhodamine B assay
[3] = system: HOP-62; assay: Growth inhibition of human HOP62 cells incubated for 48 hrs by sulforhodamine B assay; details: HOP-62, 48 h
[4] = system: COLO 205; assay: Growth inhibition of human COLO205 cells incubated for 48 hrs by sulforhodamine B assay; details: COLO 205, 48 h
[5] = system: HCC 2998; assay: Growth inhibition of human HCC2998 cells incubated for 48 hrs by sulforhodamine B assay; details: HCC 2998, 48 h; for TGI: read-out: pTGI (converted)
[6] = system: SK-OV-3; assay: Growth inhibition of human SKOV3 cells incubated for 48 hrs by sulforhodamine B assay; details: SK-OV-3, 48 h
[7] = system: BT-549; assay: Growth inhibition of human BT549 cells incubated for 48 hrs by sulforhodamine B assay; details: BT-549, 48 h
[8] = system: RPMI-8226; assay: Growth inhibition of human RPMI8226 cells assessed as cell growth at 0.01 uM incubated for 48 hrs by sulforhodamine B assay relative to control; details: RPMI-8226, 48 h, read-out: Activity
[9] = system: EKVX; assay: Growth inhibition of human EKVX cells assessed as cell growth at 0.01 uM incubated for 48 hrs by sulforhodamine B assay relative to control; details: read-out: Activity
[10] = system: KM12; assay: Growth inhibition of human KM12 cells assessed as cell growth at 0.01 uM incubated for 48 hrs by sulforhodamine B assay relative to control; details: KM12, 48 h, read-out: Activity
[11] = system: TK-10; assay: Growth inhibition of human TK10 cells assessed as cell growth at 0.01 uM incubated for 48 hrs by sulforhodamine B assay relative to control; details: TK-10, 48 h, read-out: Activity
[12] = system: MCF7; assay: Growth inhibition of human MCF7 cells assessed as cell growth at 0.01 uM incubated for 48 hrs by sulforhodamine B assay relative to control; details: MCF7, 48 h, read-out: Activity
[13] = system: RPMI-8226; assay: Growth inhibition of human RPMI8226 cells assessed as cell growth at 0.1 uM incubated for 48 hrs by sulforhodamine B assay relative to control; details: RPMI-8226, 48 h, read-out: Activity
[14] = system: SF-268; assay: Growth inhibition of human SF268 cells assessed as cell growth at 0.1 uM incubated for 48 hrs by sulforhodamine B assay relative to control; details: SF-268, 48 h, read-out: Activity
[15] = system: SNB-19; assay: Growth inhibition of human SNB19 cells assessed as cell growth at 0.1 uM incubated for 48 hrs by sulforhodamine B assay relative to control; details: SNB-19, 48 h, read-out: Activity
[16] = system: U-251; assay: Growth inhibition of human U251 cells assessed as cell growth at 0.1 uM incubated for 48 hrs by sulforhodamine B assay relative to control; details: U-251, 48 h, read-out: Activity
[17] = system: MCF7; assay: Growth inhibition of human MCF7 cells assessed as cell growth at 0.1 uM incubated for 48 hrs by sulforhodamine B assay relative to control; details: MCF7, 48 h, read-out: Activity
[18] = system: BT-549; assay: Growth inhibition of human BT549 cells assessed as cell growth at 0.1 uM incubated for 48 hrs by sulforhodamine B assay relative to control; details: BT-549, 48 h, read-out: Activity
[19] = system: HCT-116; assay: Growth inhibition of human HCT116 cells assessed as cell growth at 1 uM incubated for 48 hrs by sulforhodamine B assay relative to control; details: HCT-116, 48 h, read-out: Activity
[20] = system: SF-539; assay: Growth inhibition of human SF539 cells assessed as cell growth at 1 uM incubated for 48 hrs by sulforhodamine B assay relative to control; details: SF-539, 48 h, read-out: Activity
[21] = system: LOX IMVI; assay: Growth inhibition of human LOXIMVI cells assessed as cell growth at 1 uM incubated for 48 hrs by sulforhodamine B assay relative to control; details: read-out: Activity
[22] = system: SK-MEL-28; assay: Growth inhibition of human SK-MEL-28 cells assessed as cell growth at 1 uM incubated for 48 hrs by sulforhodamine B assay relative to control; details: SK-MEL-28, 48 h, read-out: Activity
[23] = system: OVCAR-4; assay: Growth inhibition of human OVCAR4 cells assessed as cell growth at 1 uM incubated for 48 hrs by sulforhodamine B assay relative to control; details: OVCAR-4, 48 h, read-out: Activity
[24] = system: 786-0; assay: Growth inhibition of human 786-0 cells assessed as cell growth at 1 uM incubated for 48 hrs by sulforhodamine B assay relative to control; details: 786-0, 48 h, read-out: Activity
[25] = system: Hs-578T; assay: Growth inhibition of human Hs 578T cells assessed as cell growth at 1 uM incubated for 48 hrs by sulforhodamine B assay relative to control; details: read-out: Activity
[26] = system: NCI-H226; assay: Growth inhibition of human NCI-H226 cells assessed as cell growth at 100 uM incubated for 48 hrs by sulforhodamine B assay relative to control; details: NCI-H226, 48 h, read-out: Activity
[27] = system: SF-268; assay: Growth inhibition of human SF268 cells assessed as cell growth at 100 uM incubated for 48 hrs by sulforhodamine B assay relative to control; details: SF-268, 48 h, read-out: Activity
[28] = system: LOX IMVI; assay: Growth inhibition of human LOXIMVI cells assessed as cell growth at 100 uM incubated for 48 hrs by sulforhodamine B assay relative to control; details: read-out: Activity
[29] = system: SK-MEL-2; assay: Growth inhibition of human SK-MEL-2 cells assessed as cell growth at 100 uM incubated for 48 hrs by sulforhodamine B assay relative to control; details: SK-MEL-2, 48 h, read-out: Activity
[30] = system: IGROV-1; assay: Growth inhibition of human IGROV1 cells assessed as cell growth at 100 uM incubated for 48 hrs by sulforhodamine B assay relative to control; details: IGROV-1, 48 h, read-out: Activity
[31] = read-out: LC50 (the source's name)
[32] = read-out: pLC50 (the source's name) (converted)

With `c1ccc2c3c([nH]c2c1)C(c1ccc(C2NCCc4c2[nH]c2ccccc42)cc1)NCC3` (racemic) the CC50 [1, 31] was 1.22 µM, the GI50 ([1]; read-out: pGI50 (converted)) was 0.457 µM and the CC50 [1, 32] was 12.3 µM. It also gave a TGI ([1]; read-out: pTGI (converted)) of 2.04 µM, a GI50 ([2]; read-out: GI50) of 1.42 µM and a CC50 [2, 31] of 8.12 µM. The TGI ([2]; read-out: TGI) was 3.39 µM, the GI50 ([2]; read-out: pGI50 (converted)) was 2.24 µM and the CC50 [2, 32] was 8.13 µM. It also gave a TGI ([2]; read-out: pTGI (converted)) of 3.39 µM, a GI50 ([3]; read-out: GI50) of 1.31 µM and a TGI ([3]; read-out: TGI) of 2.79 µM. It also gave a GI50 ([3]; read-out: pGI50 (converted)) of 1.32 µM, a TGI ([3]; read-out: pTGI (converted)) of 2.82 µM and a GI50 ([4]; read-out: GI50) of 2.04 µM. The CC50 [4, 31] was 1.2 µM, the TGI ([4]; read-out: TGI) was 4.59 µM and the GI50 ([4]; read-out: pGI50 (converted)) was 0.204 µM. It also gave a CC50 [4, 32] of 1.2 µM, a TGI ([4]; read-out: pTGI (converted)) of 0.457 µM and a GI50 ([5]; read-out: pGI50 (converted)) of 0.275 µM. The TGI [5] was 1.29 µM, the GI50 ([6]; read-out: GI50) was 1.88 µM and the CC50 [6, 31] was 9.12 µM. It also gave a TGI ([6]; read-out: TGI) of 4.14 µM, a GI50 ([6]; read-out: pGI50 (converted)) of 1.86 µM and a CC50 [6, 32] of 9.12 µM. For the same molecule, the TGI ([6]; read-out: pTGI (converted)) was 4.17 µM, the GI50 ([7]; read-out: GI50) was 1.11 µM and the CC50 [7, 31] was 5.37 µM. The TGI ([7]; read-out: TGI) was 2.44 µM, the GI50 ([7]; read-out: pGI50 (converted)) was 11.2 µM and the CC50 [7, 32] was 53.7 µM. It also gave a TGI ([7]; read-out: pTGI (converted)) of 24.5 µM, a growth at 0.01 µM [8] of 102% and a growth at 0.01 µM [9] of 88%. The growth at 0.01 µM [10] was 101%, the growth at 0.01 µM [11] was 97% and the growth at 0.01 µM [12] was 88%. For the same molecule, the growth at 0.1 µM [13] was 105%, the growth at 0.1 µM [14] was 89% and the growth at 0.1 µM [15] was 99%. For the same molecule, the growth at 0.1 µM [16] was 97%, the growth at 0.1 µM [17] was 90% and the growth at 0.1 µM [18] was 95%. For the same molecule, the growth at 1 µM [19] was 81%, the growth at 1 µM [20] was 88% and the growth at 1 µM [21] was 48%. It also gave a growth at 1 µM [22] of 91%, a growth at 1 µM [23] of 59% and a growth at 1 µM [24] of 92%. For the same molecule, the growth at 1 µM [25] was 68%, the growth at 100 µM [26] was 60% and the growth at 100 µM [27] was 83%. It also gave a growth at 100 µM [28] of 84%, a growth at 100 µM [29] of 93% and a growth at 100 µM [30] of 89%.

For `c1ccc2[nH]c(-c3ccc(-c4nccc5c4[nH]c4ccccc45)cc3)nc2c1`, the GI50 ([1]; read-out: GI50) was 3.12 µM, the CC50 [1, 31] was > 1 µM and the TGI ([1]; read-out: TGI) was 9.12 µM. For the same molecule, the GI50 ([1]; read-out: pGI50 (converted)) was 3.09 µM, the CC50 [1, 32] was > 100 µM and the TGI ([1]; read-out: pTGI (converted)) was 9.12 µM. For the same molecule, the GI50 ([2]; read-out: GI50) was 3.45 µM, the CC50 [2, 31] was > 1 µM and the GI50 ([2]; read-out: pGI50 (converted)) was 3.47 µM. For the same molecule, the CC50 [2, 32] was > 100 µM, the TGI ([2]; read-out: pTGI (converted)) was 17 µM and the GI50 ([3]; read-out: GI50) was 2.8 µM. For the same molecule, the LC50 (concentration killing 50% of cells) ([3]; read-out: LC50) was 5.31 µM, the GI50 ([3]; read-out: pGI50 (converted)) was 2.82 µM and the LC50 (concentration killing 50% of cells) ([3]; read-out: pLC50 (converted)) was 53.7 µM. It also gave a TGI ([3]; read-out: pTGI (converted)) of 10.7 µM, a GI50 ([4]; read-out: GI50) of 2.32 µM and a CC50 [4, 31] of 4.35 µM. For the same molecule, the TGI ([4]; read-out: TGI) was 6.22 µM, the GI50 ([4]; read-out: pGI50 (converted)) was 2.34 µM and the CC50 [4, 32] was 43.7 µM. It also gave a TGI ([4]; read-out: pTGI (converted)) of 6.17 µM, a GI50 ([5]; read-out: GI50) of 3.96 µM and an LC50 ([5]; read-out: LC50) of 5.31 µM. The GI50 ([5]; read-out: pGI50 (converted)) was 3.98 µM, the LC50 ([5]; read-out: pLC50 (converted)) was 53.7 µM and the TGI [5] was 15.8 µM. It also gave a CC50 [6, 31] of 4.66 µM, a GI50 ([6]; read-out: pGI50 (converted)) of 4.37 µM and a CC50 [6, 32] of 46.8 µM. The TGI ([6]; read-out: pTGI (converted)) was 15.8 µM, the GI50 ([7]; read-out: GI50) was 2.12 µM and the CC50 [7, 31] was 7.21 µM. For the same molecule, the TGI ([7]; read-out: TGI) was 5.42 µM, the GI50 ([7]; read-out: pGI50 (converted)) was 2.14 µM and the CC50 [7, 32] was 72.4 µM. The TGI ([7]; read-out: pTGI (converted)) was 5.37 µM, the growth at 0.01 µM [8] was 106% and the growth at 0.01 µM [9] was 94%. It also gave a growth at 0.01 µM [10] of 95%, a growth at 0.01 µM [11] of 96% and a growth at 0.01 µM [12] of 91%. It also gave a growth at 0.1 µM [13] of 105%, a growth at 0.1 µM [14] of 96% and a growth at 0.1 µM [15] of 96%. The growth at 0.1 µM [16] was 104%, the growth at 0.1 µM [17] was 96% and the growth at 0.1 µM [18] was 92%. For the same molecule, the growth at 1 µM [19] was 90%, the growth at 1 µM [20] was 98% and the growth at 1 µM [21] was 81%. For the same molecule, the growth at 1 µM [22] was 102%, the growth at 1 µM [23] was 83% and the growth at 1 µM [24] was 89%. For the same molecule, the growth at 1 µM [25] was 91%, the growth at 100 µM [26] was 50% and the growth at 100 µM [27] was 52%. It also gave a growth at 100 µM [28] of 49%, a growth at 100 µM [29] of 64% and a growth at 100 µM [30] of 47%.
